Reference: patent publication US6784137B2, “6-aryl-4-aminopicolinates and their use as herbicides” (Dow AgroSciences LLC, priority 2001, dated 2004)
Read-outs that look alike come from different tables or passages of the source.

Columns and labels:
[1] = test system: Barnyardgrass (Echinochloa crus-galli); test: Postemergence herbicidal activity, greenhouse spray; format: in vivo; details: Echinochloa crus-galli, post-emergence, 336 h, visual score after 2 weeks, read-out: Post-emergent % control ECHCG; for pest or weed control at 500 ppm / pest or weed control at 250 ppm: Table 1; for pest or weed control at 500 ppm: rate 500 ppm; for pest or weed control at 250 ppm: rate 250 ppm; for pest or weed control at 125 ppm: Table 2, rate 125 ppm
Method in brief: (§1)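 Greenhouse-grown plants (7–21 days, ~15 h photoperiod, 23–29 °C day) at first or second true leaf stage were sprayed to full coverage with compound in acetone/water/isopropanol/DMSO/crop oil/Triton X-155 carrier. Controls received carrier alone; plants were sub-irrigated afterwards.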

[2] = test system: Cocklebur (Xanthium strumarium); test: as above; format: in vivo; details: Xanthium strumarium, post-emergence, 336 h, visual score after 2 weeks, read-out: Post-emergent % control XANST; for pest or weed control at 500 ppm / pest or weed control at 250 ppm: Table 1; for pest or weed control at 500 ppm: rate 500 ppm, 0 no injury, 100 complete kill; for pest or weed control at 250 ppm: rate 250 ppm; for pest or weed control at 125 ppm: Table 2, rate 125 ppm
Method in brief: as §1

[3] = test system: Lambsquarter (Chenopodium album); test: as above; format: in vivo; details: Chenopodium album, post-emergence, 336 h, visual score after 2 weeks, read-out: Post-emergent % control CHEAL; for pest or weed control at 500 ppm / pest or weed control at 250 ppm: Table 1; for pest or weed control at 500 ppm: rate 500 ppm; for pest or weed control at 250 ppm: rate 250 ppm; for pest or weed control at 125 ppm: Table 2, rate 125 ppm
Method in brief: as §1

[4] = test system: Pigweed (redroot) (Amaranthus retroflexus); test: as above; format: in vivo; details: visual score after 2 weeks; for pest or weed control at 62.5 µg/mL: Amaranthus retroflexus, post-emergence, 336 h, rate 62.5 (unit inferred), read-out: Post-emergent % control AMARE; for Post-emergent % control AMARE: rate 62.5 (unit not given)
Method in brief: as §1

[5] = test system: Yellow nutsedge (Cyperus esculentus); test: as above; format: in vivo; details: Cyperus, post-emergence, 336 h, visual score after 2 weeks, read-out: Post-emergent % control CYPES; for pest or weed control at 500 ppm / pest or weed control at 250 ppm: Table 1; for pest or weed control at 500 ppm: rate 500 ppm; for pest or weed control at 250 ppm: rate 250 ppm; for pest or weed control at 125 ppm: Table 2, rate 125 ppm
Method in brief: as §1

[6] = test system: Wheat(var. Merica) (Triticum aestivum); test: Postemergence herbicidal activity, selectivity to wheat; format: in vivo; details: post-emergence, 336 h, Table 3, rate 62.5 (unit inferred), crop injury, read-out: Post-emergent % control TRZAS
Protocol: (§2) Seeds of the desired test plant species were planted in Grace-Sierra MetroMix® 306 planting mixture, which typically has a pH of 6.0 to 6.8 and an organic matter content of about 30 percent, in plastic pots with a surface area of 64 square centimeters. When required to ensure good germination and healthy plants, a fungicide treatment and/or other chemical or physical treatment was applied. The plants were grown for 7-21 days in a greenhouse with an approximate 15 hr photoperiod which was maintained at about 23-29° C. during the day and 22-28° C. during the night. Nutrients and water were added on a regular basis and supplemental lighting was provided with overhead metal halide 1000-Watt lamps as necessary. The plants were employed for testing when they reached the first or second true leaf stage. A weighed amount, determined by the highest rate to be tested, of each test compound was placed in a 20 mL glass vial and was dissolved in 4 mL of a 97:3 v/v (volume/volume) mixture of acetone and dimethyl sulfoxide (DMSO) to obtain concentrated stock solutions. […] The concentrated stock solutions obtained were diluted with an aqueous mixture containing acetone, water, isopropyl alcohol, DMSO, At plus 411 F crop oil concentrate, and Triton X-155 surfactant in a 48.5:39:10:1.5:1.0:0.02 v/v ratio to obtain spray solutions of known concentration. The solutions containing the highest concentration to be tested were prepared by diluting 2 mL aliquots of the stock solution with 13 mL of the mixture and lower concentrations were prepared by serial dilution of the stock solution. Approximately 1.5 mL aliquots of each solution of known concentration were sprayed evenly onto each of the test plant pots using a DeVilbiss atomizer driven by compressed air pressure of […] (140 to 280 kiloPascals) to obtain thorough coverage of each plant. Control plants were sprayed in the same manner with the aqueous mixture. In this test an application rate of 1 ppm results in the application of approximately 1 g/Ha. The treated plants and control plants were placed in a greenhouse as described above and watered by sub-irrigation to prevent wash-off of the test compounds. After 2 weeks the condition of the test plants as compared with that of the untreated plants was determined visually and scored on a scale of 0 to 100 percent where 0 corresponds to no injury and 100 corresponds to complete kill.

[7] = test system: Corn (#14 3377) (Zea mays); test: Postemergence herbicidal activity, selectivity to corn; format: in vivo; details: post-emergence, 336 h, Table 4, rate 62.5 (unit inferred), crop injury, read-out: Post-emergent % control ZEAMX
Protocol: as §2

[8] = test system: Crabgrass(large) (Digitaria sanguinalis); test: Preemergence herbicidal activity, soil spray; format: in vivo; details: Digitaria sanguinalis, pre-emergence, 504 h; Table 5; rate 560 ppm; visual score after 3 weeks; read-out: Pre-emergent % control DIGSA
Method in brief: (§3)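 After seeding into loam:sand (70 to 30), pots received a uniform soil-surface spray of the compound, diluted serially from 97:3 acetone:dimethyl sulfoxide stocks with aqueous 0.1% Tween 155; carrier-sprayed pots served as controls. Plants grew under greenhouse conditions of about 23-29° C by day and 22-28° C by night.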

[9] = test system: Giant Foxtail (Setaria faberi); test: Preemergence herbicidal activity, soil spray; format: in vivo; details: Setaria faberi, pre-emergence, 504 h, Table 5; rate 560 ppm; visual score after 3 weeks; read-out: Pre-emergent % control SETFA
Method in brief: as §3

[10] = test system: Lambsquarter (Chenopodium album); test: Preemergence herbicidal activity, soil spray; format: in vivo; details: Chenopodium album, pre-emergence, 504 h; Table 5; rate 560 ppm; visual score after 3 weeks, 100 complete kill or no germination; read-out: Pre-emergent % control CHEAL
Method in brief: as §3

[11] = test system: Pigweed (redroot) (Amaranthus retroflexus); test: Preemergence herbicidal activity, soil spray; format: in vivo; details: Amaranthus retroflexus, pre-emergence, 504 h; Table 5; rate 560 ppm; visual score after 3 weeks; read-out: Pre-emergent % control AMARE
Method in brief: as §3

| melting point [°C] | SMILES | pest or weed control at 500 ppm [1] [%] | pest or weed control at 500 ppm [2] [%] | pest or weed control at 500 ppm [3] [%] | pest or weed control at 62.5 µg/mL ([4]; Table 3) [%] | Post-emergent % control AMARE ([4]; Table 4) [%] | pest or weed control at 500 ppm [5] [%] | pest or weed control at 62.5 µg/mL [6] [%] | pest or weed control at 62.5 µg/mL [7] [%] | pest or weed control at 560 ppm [8] [%] | pest or weed control at 560 ppm [9] [%] | pest or weed control at 560 ppm [10] [%] | pest or weed control at 560 ppm [11] [%] | pest or weed control at 250 ppm [1] [%] | pest or weed control at 250 ppm [2] [%] | pest or weed control at 250 ppm [3] [%] | pest or weed control at 250 ppm [5] [%] | pest or weed control at 62.5 µg/mL ([4]; Table 4) [%] | also measured |
| --- | --- | --- | --- | --- | --- | --- | --- | --- | --- | --- | --- | --- | --- | --- | --- | --- | --- | --- | --- |
| 166 to 167 | Cc1ccc(-c2cc(N)c(Cl)c(C(=O)O)n2)cc1 [Compound 136, 4-Amino-3-chloro-6-(4-methylphenyl)pyridine-2-carboxylic acid] |  |  |  | 100 |  |  | 0 |  | 100 | 100 | 100 | 100 | 70 | 100 | 100 | 80 |  | pest or weed control at 125 ppm [1]: 70%; pest or weed control at 125 ppm [2]: 100%; pest or weed control at 125 ppm [3]: 100%; pest or weed control at 125 ppm [5]: 70% |
| 176 to 177 | Nc1cc(-c2ccc(Cl)cc2Cl)nc(C(=O)O)c1Cl [Compound 146, 4-Amino-3-chloro-6-(2,4-dichlorophenyl)pyridine-2-carboxylic acid] |  |  |  |  |  |  |  | 0 | 80 | 90 | 100 | 100 | 85 | 100 | 100 | 98 | 100 | pest or weed control at 125 ppm [1]: 75%; pest or weed control at 125 ppm [2]: 100%; pest or weed control at 125 ppm [3]: 100%; pest or weed control at 125 ppm [5]: 95% |
| 182 | Nc1cc(-c2ccc3c(c2)OCO3)nc(C(=O)O)c1Cl [Compound 153, 4-Amino-3-chloro-6-(3,4-methylenedioxyphenyl)pyridine-2-carboxylic acid] | 95 | 100 | 98 | 100 |  | 70 | 10 |  | 100 | 100 | 100 | 100 |  |  |  |  |  |  |
| 153 to 154 | Cc1cc(Cl)ccc1-c1cc(N)c(Cl)c(C(=O)O)n1 [Compound 155, 4-Amino-3-chloro-6-(4-chloro-2-methylphenyl)pyridine-2-carboxylic acid] |  |  |  |  |  |  |  | 0 |  |  |  |  |  |  |  |  | 100 |  |

The remaining lines, values behind:

| SMILES | melting point [°C] | pest or weed control at 500 ppm [1] [%] | pest or weed control at 500 ppm [2] [%] | pest or weed control at 500 ppm [3] [%] | pest or weed control at 62.5 µg/mL ([4]; Table 3) [%] | Post-emergent % control AMARE ([4]; Table 4) [%] | pest or weed control at 500 ppm [5] [%] | pest or weed control at 62.5 µg/mL [6] [%] | pest or weed control at 62.5 µg/mL [7] [%] | pest or weed control at 560 ppm [8] [%] | pest or weed control at 560 ppm [9] [%] | pest or weed control at 560 ppm [10] [%] | pest or weed control at 560 ppm [11] [%] | pest or weed control at 250 ppm [1] [%] | pest or weed control at 250 ppm [2] [%] | pest or weed control at 250 ppm [3] [%] | pest or weed control at 250 ppm [5] [%] | pest or weed control at 62.5 µg/mL ([4]; Table 4) [%] | also measured |
| --- | --- | --- | --- | --- | --- | --- | --- | --- | --- | --- | --- | --- | --- | --- | --- | --- | --- | --- | --- |
| COC(=O)c1nc(-c2ccc(C)c(C)c2)cc(N)c1Cl [Compound 12, methyl 4-amino-3-chloro-6-(3,4-dimethylphenyl)pyridine-2-carboxylate] | 154 to 156 | 95 | 100 | 95 | 70 | 70 | 30 | 0 | 10 | 40 | 30 | 98 | 100 |  |  |  |  |  |  |
| COC(=O)c1nc(-c2cccc(C)c2)cc(N)c1Cl [Compound 21, Methyl 4-amino-3-chloro-6-(3-methylphenyl)pyridine-2-carboxylate] | 98 |  |  |  | 70 | 70 |  | 10 | 0 | 100 | 80 | 100 | 100 | 0 | 100 | 100 | 70 |  |  |
| COC(=O)c1nc(-c2ccc(F)cc2)cc(N)c1Cl [Compound 43, Methyl 4-amino-3-chloro-6-(4-fluorophenyl)pyridine-2-carboxylate] | 125 | 95 | 100 | 100 | 100 | 100 | 100 | 10 | 0 | 100 | 98 | 100 | 100 |  |  |  |  |  |  |
| COC(=O)c1nc(-c2ccc(Cl)cc2C)cc(N)c1Cl [Compound 45, Methyl 4-amino-3-chloro-6-(4-chloro-2-methylphenyl)pyridine-2-carboxylate] | 114 to 115 |  |  |  |  |  |  |  | 0 |  |  |  |  |  |  |  |  | 100 |  |
| COC(=O)c1nc(-c2ccc(Cl)cc2)cc(NC(C)=O)c1Cl [Compound 53, Methyl 4-acetamido-3-chloro-6-(4-chlorophenyl)pyridine-2-carboxylate] | 151 to 152 |  |  |  | 70 | 70 |  | 0 | 10 | 100 | 100 | 100 | 100 |  |  |  |  |  |  |
| COC(=O)c1nc(-c2ccc(F)cc2Cl)cc(N)c1Cl [Compound 58, Methyl 4-amino-3-chloro-6-(2-chloro-4-fluorophenyl)pyridine-2-carboxylate] | 155 to 157 | 70 | 100 | 100 |  |  | 70 |  | 0 |  |  |  |  |  |  |  |  | 100 |  |
